In patent US8778948B2, “Substituted phenylpiperazinyl aralkylalcohol derivatives, pharmaceutical compositions containing such derivatives and uses thereof” (priority 2008, dated 2014):
“Also recorded” adds a separate entry of the source. Marks after values point to notes of the source that are not given here.

How the values were obtained:
Kunming mice [1] = assay: Acetic acid-induced abdominal writhing test in mice; type: in vivo; details: 1 h before 0.7% acetic acid i.p.
Procedure: Acetic Acid-Induced Abdominal Writhing Test in Mice
Kunming mice, SPF KM mice purchased from […] SLAC LABORATORY ANIMAL CO. LTD and kept in normal environment.
(§1) 2. Modes of Administration
The compounds were dissolved in water for injection at a concentration of 4 mg/ml, 2 mg/ml and 1 mg/ml and were given intragastrically to animals.
(§2) Three different doses (10, 20, and 40 mg/kg) were administered to the test groups.
Aspirin was used as a positive control and acetic acid writhing test was used.
30 mice (half male and half female) weighing 18-23 g were divided into five groups, including negative control group, positive control group, low dose group, medium dose group and high dose group:
Mice in test group received test drug (10 mg/kg, 20 mg/kg, 40 mg/kg) via intragastric administration. Negative control group received physiological saline (20 ml/kg) via oral administration. Positive control group received aspirin (200 mg/kg) via oral administration. One hour later, each group received 0.7% acetic acid 10 ml/kg intraperitoneally. Five minutes later, the number of writhes was counted within the subsequent 15 min period; inhibition percentage of writhing response in each test group was calculated by the following equation: […]

Kunming mice [2] = assay: Hot-plate test in mice; type: in vivo; details: 1 h post dose, hot plate 55° C.
Procedure: Kunming mice, SPF KM mice were purchased from […] SLAC LABORATORY ANIMAL CO. LTD and kept in normal environment.
as §1
The compounds were dissolved in water for injection at a concentration of 4 mg/ml, 2 mg/ml and 1 mg/ml and were given subcutaneously to animals.
as §2
Morphine was used as a positive control and hot plate test was used.
30-40 mice (half male and half female) weighing 18-23 g were used. First, each mouse was placed on a hot plat at 55° C. to determine basic pain threshold for 2-3 times. Those animals with basic pain threshold of 5-30 s were qualified, unqualified mice were not used. 30 qualified mice were divided into five groups, including negative control group, positive control group, low-dose group, medium-dose group and high-dose group:
Mice in test groups received test sample solution (10 mg/kg, 20 mg/kg, 40 mg/kg) via subcutaneous injection in the neck. Positive control group received subcutaneous injection of morphine (2 mg/kg). One hour later, pain threshold values were determined for mice in each group as post-drug pain threshold. Percentage increase in pain threshold was calculated according to the following equation: […]

[3] = molecular target: opioid receptor subtype κ (Homo sapiens, UniProt P41145); assay: biochemical; type: binding
Chain of opioid receptor subtype κ (P41145 whole entry): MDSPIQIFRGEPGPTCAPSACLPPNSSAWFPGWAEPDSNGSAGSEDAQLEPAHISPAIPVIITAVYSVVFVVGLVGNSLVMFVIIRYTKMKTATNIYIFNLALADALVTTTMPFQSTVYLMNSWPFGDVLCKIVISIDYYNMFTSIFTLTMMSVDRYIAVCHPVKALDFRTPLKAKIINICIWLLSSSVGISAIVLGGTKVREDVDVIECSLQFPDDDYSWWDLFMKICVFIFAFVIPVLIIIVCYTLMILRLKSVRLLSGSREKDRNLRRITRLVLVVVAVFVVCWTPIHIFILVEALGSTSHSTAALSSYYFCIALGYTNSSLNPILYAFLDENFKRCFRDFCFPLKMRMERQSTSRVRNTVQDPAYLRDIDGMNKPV
Procedure: (§3) Competitive Binding Between the Compounds and Opioid Receptor Subtypes μ, δ, κ
(§4) The respective test compounds were added to the sample tube (final concentration of 10^−5M), incubated at 37° C. for 30 min and placed in ice bath to terminate the reaction. The reaction mixture was filtered through GF/C(Whatman) glass fiber filter by vacuum filtration on a Millipore sample collector. The filter was washed three times with 50 mM Tris-HCl (pH7.4), each with 4 ml; dried and transferred into a 0.5 ml Eppendorf tube, in which 0.5 ml lipophilic scintillation fluid was added. Radioactivity was detected by a LS6500 scintillation counter. Each concentration had three duplicate test tubes and each separate test was repeated 3 to 4 times.
(§5) Specific binding CMP value for each sample tube=overall binding CPM value for each sample tube-CPM value of non-specific binding tube. [Inhibition percentage of competitive binding between the test compound and different opioid receptor subtypes (%)=(100%−specific binding (CPM value) of sample tube/specific binding (CPM value) of solvent group×100%)]
(§6) Average was taken for each test drug from three duplicate tubes; each test was repeated two or more times.

[4] = molecular target: opioid receptor subtype μ (Homo sapiens, UniProt P35372); assay: biochemical; type: binding
Chain of opioid receptor subtype μ (P35372 whole entry): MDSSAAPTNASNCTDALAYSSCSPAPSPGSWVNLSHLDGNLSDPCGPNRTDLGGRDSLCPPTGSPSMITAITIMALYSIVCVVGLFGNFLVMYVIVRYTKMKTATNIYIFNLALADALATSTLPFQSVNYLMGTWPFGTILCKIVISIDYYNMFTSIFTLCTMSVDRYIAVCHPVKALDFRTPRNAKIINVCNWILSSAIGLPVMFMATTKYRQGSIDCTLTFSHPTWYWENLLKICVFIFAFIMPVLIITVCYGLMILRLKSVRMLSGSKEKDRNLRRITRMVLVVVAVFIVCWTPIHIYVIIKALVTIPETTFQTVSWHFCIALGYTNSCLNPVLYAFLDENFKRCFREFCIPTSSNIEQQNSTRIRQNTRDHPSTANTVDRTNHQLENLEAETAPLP
Procedure: as §3, §4, §5, §6

[5] = molecular target: opioid receptor subtype δ (Homo sapiens, UniProt P41143); assay: Competitive radioligand binding ([3H]Diprenorphine), opioid receptor subtype δ
Chain of opioid receptor subtype δ (P41143 whole entry): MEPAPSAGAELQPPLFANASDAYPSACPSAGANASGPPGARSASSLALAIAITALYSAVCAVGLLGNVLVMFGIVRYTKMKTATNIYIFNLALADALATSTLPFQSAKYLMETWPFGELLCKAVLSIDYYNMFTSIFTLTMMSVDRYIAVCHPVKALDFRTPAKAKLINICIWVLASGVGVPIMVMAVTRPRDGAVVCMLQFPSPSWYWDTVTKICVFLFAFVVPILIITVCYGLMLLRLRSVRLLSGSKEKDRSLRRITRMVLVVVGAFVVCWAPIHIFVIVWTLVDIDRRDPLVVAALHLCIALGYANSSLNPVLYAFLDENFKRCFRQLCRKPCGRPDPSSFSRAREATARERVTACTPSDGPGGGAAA
Procedure: as §3, §4, §5
Average was taken for each test drug from three duplicate tubes; each test was repeated two or more times. Data were presented as mean±SE and statistical comparison was made by ANOVA.

in vivo = details: mouse, po, mice
Text: Studies of Acute Toxicity of the Compound I-1 and I-20
For statistics of 1-20, Bliss method was used (“Experimental Design and Statistical Basis for Drug Evaluation”, Changxiao Liu, Ruiyuan Su, first edition, Military Medical Science Press, 1993, 80-90).

[6] = test system: Salmonella typhimurium histidine auxotroph mutants TA97, TA98, TA100 and TA102; type: cell-based
Procedure: Bacterial Reverse Mutation Test on I-20
Bacterial reverse mutation test on compound I-20 was performed on Salmonella typhimurium histidine auxotroph mutants TA97, TA98, TA100 and TA102 (purchased from MolTox company) using conventional procedures of Ames test.
Observation period: colony counting was done 48 hours after cultivation at 37° C.
Drug solutions with different concentrations were prepared with double distilled water, and the doses were 5, 50, 500, 1000, 5000 μg/plate.
Direct effect of the test drug in the absence of metabolic activity was determined by standard plate incorporation assay. The composition of the test top layer was: 2.0 ml top layer, 0.1 ml drug solution, 0.1 ml bacteria solution and 0.5 ml phosphate buffer.
Pre-incubation was used in the determination of the drug's mutagenic effect in the presence of metabolic activity. The composition of the test top layer is: 2.0 ml top layer, 0.1 ml drug solution, 0.1 ml bacteria solution and 0.5 ml S9 mix.
The resulting drug solution, bacterial solution and S9 mix were first incubated at 35° C. for 30 min while shaking, and then tested according to standard plate incorporation assay. Each dose was tested in three plates, each mutant was tested in the absence or presence of metabolic activity (−S9 or +S9) and repeated twice, the number of revertant colonies was calculated as x±SD.
Results: the test included two parts, −S9 and +S9. […] Other doses had no bacteristatic effect to all strains, and the background growth was good.

[7] = Animal model study of compound I-20 (summary statements)

COc1ccccc1N1CCN([C@H](C)[C@H](O)c2ccccc2)CC1 (racemic) [Compound I-20, (1RS,2RS)-1-phenyl-2-(4-(2-methoxyphenyl)piperazinyl)-propan-1-ol]
Inhibition percentage of writhing response (Kunming mice [1]; 10 mg/kg Ig): 46.61%
Inhibition percentage of writhing response (Kunming mice [1]; 20 mg/kg Ig): 72.03 * %
Inhibition percentage of writhing response (Kunming mice [1]; 40 mg/kg Ig): 64.41%
Percentage increase in pain threshold (Kunming mice [2]; 10 mg/kg S.c.): 63.29 * %
Percentage increase in pain threshold (Kunming mice [2]; 20 mg/kg S.c.): 80.88 * %
Percentage increase in pain threshold (Kunming mice [2]; 40 mg/kg S.c.): 186.25 ** %
Affinity to opioid receptor subtype κ (in words) [3]: no obvious affinity
inhibition at 10 µM ([3]; test concentration 10^−5 mol/L, [3H]Diprenorphine 0.4 nM, mean±SE, read-out: Inhibition percentage of competitive binding, κ): 8.9 ± 0.2%
Affinity to opioid receptor subtype μ (in words) [4]: no obvious affinity
inhibition at 10 µM ([4]; test concentration 10^−5 mol/L, [3H]Diprenorphine 0.4 nM, mean±SE, read-out: Inhibition percentage of competitive binding, μ): 13.4 ± 2.1%
Affinity to opioid receptor subtype δ (in words) [5]: no obvious affinity
inhibition at 10 µM ([5]; read-out: Inhibition percentage of competitive binding, δ): 0%
LD50 (in vivo): 674 mg/kg
Ames test result ([6]; TA97, TA98, TA100, TA102, −S9 and +S9, 5-5000 μg/plate): negative
Bacteristatic effect on test strains ([6]; TA98 in −S9 test system and TA97 in +S9 test system): bacteristatic effects
Increase in the number of revertant colonies ([6]; −S9 and +S9, 5, 50, 500, 1000, 5000 μg/plate): None of the tested dose resulted in significant increase
Analgesic effect (in words) ([7]; animal model study): obvious analgesic effect
Potential for drug dependence ([7]; in vivo): low potential for drug dependence
Drug resistance after multiple applications ([7]; multiple applications): No drug resistance is observed
Absorption with oral administration (in words) ([7]; oral administration): well absorbed; also recorded: good absorption
